# Data as given in US20250289786A1, “CHLORINATED MONOCARBONYL CURCUMIN COMPOUNDS, PREPARATION METHOD, AND APPLICATION” (Southwest Medical University, priority 2024, published 2025).
# Tests used:
# [1] = tested on: CUMS depression model mice; test: Sucrose preference test in CUMS depression model mice; type: in vivo, C57BL/6J mice
# From the text: (§1) After one week of adaptive feeding, the newly purchased mice were divided into a blank group and CUMS model group. The mice in the blank group were not subjected to behavioral intervention and were fed normally. Mice in the model group were given 1-2 unpredictable behavioral stimuli every day. […] When the same stimulation is continuous, the stimulation method is changed to ensure that the same stimulation is not continuous, and the model construction period is 42 days.
# [2] = ABTS free radical capture ability; type: biochemical; settings: 20 min reaction in the dark
# Description: 66.2 mg of K2S2O8 was weighed and placed in a 100 mL volumetric flask, pure water was added to the scale line to prepare a 2.45 mmol/L K2S2O8 solution. 192 mg of ABTS was accurately weighed and placed in a 25 mL volumetric flask, and the newly prepared K2S2O8 solution was added for dissolving and constant volume dilution, after standing in the dark for 20 h, the ABTS mother liquor was obtained. Before use, to make the measured value more accurate, the ABTS mother liquor needs to be diluted with a PBS solution of pH7.4 until the absorbance range of the ABTS working solution at 734 nm is 0.70±0.02.
# Drug concentration screening: To avoid the complete removal of free radicals by excessive drug concentration and the inability to compare the ability to capture ABTS free radicals, a preliminary screening of drug concentration is required before the formal test. A gradient concentration of compound solution was prepared, and a gradient concentration of Vit C solution was prepared as a positive control. A total of 450 μL of ABTS working solution was accurately absorbed into a 1.5 mL EP tube, and 150 μL of the gradient solution of each group of drugs was added, after 20 min of reaction in the dark, 150 μL of the reaction solution was taken and placed in a 96-well plate, the absorbance was measured by a microplate reader. Three duplicate wells were set for each concentration, and the drug concentration with absorbance between 0.2-0.7 was selected for subsequent determination.
# Determination operation: After the drug concentration screening was completed, 7 concentration gradient groups were set within this concentration range. A total of 450 μL of ABTS working solution was accurately absorbed into a 1.5 mL EP tube, and 150 μL of the gradient solution of each group of drugs was added. After 20 min of reaction in the dark, 150 μL of the reaction solution was taken and placed in a 96-well plate, the absorbance was measured by a microplate reader. Three duplicate wells were set for each concentration, the positive control group was a gradient solution of Vit C, and the blank control group was an equal volume of anhydrous ethanol.
# [3] = tested on: CUMS depression model mice; test: Forced swimming test in CUMS depression model mice; type: in vivo, C57BL/6J mice; settings: for forced swimming test, depressive symptoms / immobility time: 14th day, in words; for immobility time in the forced swimming test: 28 days
# From the text: as §1
# PC12 cells [4] = test: MTT toxicity (safety evaluation) on PC12 nerve cells; type: cell-based
# Description: The toxicity of each drug to PC12 cells was determined by MTT assay. The principle of the MTT colorimetric method: there is succinate dehydrogenase in the mitochondria of living cells, which can make exogenous MTT become blue-purple crystal formazan insoluble in water, this phenomenon cannot be observed in dead cells. The blue-purple crystal formazan can be dissolved by DMSO, and the absorbance value is measured by a microplate reader at a wavelength of 490 nm, which in turn reflects the number of living cells. […] The operation method is as follows:
# The cells were resuscitated with DMEM high glucose medium containing 10% fetal bovine serum and cultured in a 5% CO2 cell incubator at 37° C., when the cells grew to the logarithmic growth phase, they were inoculated into a 96-well plate and cultured for 24 hours, each well was added with 100 μL of each compound solution at the corresponding gradient concentration (60, 30, 15, 7.5, 3.75 μM), after incubation in the incubator for 24 h or 48 h, 20 μL of MTT was added to continue incubation for 4 h, the supernatant was discarded and 150 μL of DMSO was added to dissolve the blue-purple crystals, after shaking for 10 min, the cell viability was detected by a microplate reader, and classified according to the cytotoxicity standard. The relevant calculation formula is as follows: […]
# [5] = tested on: Nrf2, HO-1, BDNF, and TrkB in the hippocampus; test: Western blot of hippocampal proteins in CUMS depression model mice; type: in vivo; settings: low dose, in words
# PC12 cells [6] = test: Inhibition of H2O2-induced oxidative damage in PC12 cells; type: cell-based, rat
# Description: After 24 hours of incubation in the incubator, the relative proliferation rates of the cells were calculated according to the method under Section 2.1.
# BV2 cells = test: NO release in LPS-induced BV2 cell stress; type: cell-based; settings: 1 μg/mL LPS; for NO release versus model group: 24 h, in words
# From the text: When the body is in a long-term stress and stress state, a large number of oxidizing substances and inflammatory factors accumulate in the body, causing depression and inducing depression-like symptoms. LPS is a pro-inflammatory substance, which can induce the increase of inflammatory factors, the accumulation of reactive oxygen species ROS and the release of NO in BV2 cells. The anti-inflammatory and antioxidant effects of drugs can be evaluated by establishing an LPS stress model.
# NO detection: When BV2 cells grew to the logarithmic growth phase, they were inoculated in a 6-well plate at 1×10^6 cells/well and cultured for 24 h. Then the original medium was replaced with CAK06 fresh DMEM high glucose medium containing high (10 μM), medium (5 μM), and low (1 μM) concentrations, and three duplicate wells were set up in each group. After the cells were treated with compound CAK06 for 12 h, the supernatant of the culture medium was centrifuged and stained according to the instructions of the NO detection kit, and the absorbance was detected at a wavelength of 540 nm.
# [7] = Solubility detection of CAK01-CAK07; type: physicochemical
# From the text: The chlorinated monocarbonyl curcumin compounds CAK01-CAK07 prepared under the conditions of Example 1 were taken for nuclear magnetic resonance, mass spectrometry, solubility, and melting point detection.
compound,measurement,setting,value
"COc1cc(/C=C2\CNC/C(=C\c3cc(Cl)c(O)c(OC)c3)C2=O)cc(Cl)c1O [CAK06, 3,5-bis ((E)-3-chloro-4-hydroxy-5-methoxybenzylidene) piperidin-4-one]",sucrose preference rate,"[1]; 10 mg/kg oral once a day, 14th day, in words",failed to significantly increase the sucrose preference rate
same,sucrose preference rate,"[1]; 10 mg/kg oral once a day, 28 days, model 61.36±2.18%",70.62±2.33%
same,sucrose preference rate,"[1]; 20 mg/kg oral once a day, 14th day, in words",significant increase
same,sucrose preference rate,"[1]; 20 mg/kg oral once a day, 28 days, model 61.36±2.18%",77.42±2.77%
same,IC50 values of ABTS captured,[2],44.95 µg/mL
same,"forced swimming test, depressive symptoms / immobility time",[3]; 10 mg/kg oral once a day,significant reduction in immobility time
same,immobility time in the forced swimming test,[3]; 10 mg/kg oral once a day,114.86 ± 84.07 s
same,"forced swimming test, depressive symptoms / immobility time",[3]; 20 mg/kg oral once a day,stronger antidepressant effect
same,immobility time in the forced swimming test,[3]; 20 mg/kg oral once a day,54.44 ± 53.38 s
same,cytotoxicity to PC12 cells,"PC12 cells [4]; 3.75-60 μM, 24 h and 48 h, in words",no significant cytotoxicity
same,Rank (cytotoxicity standard) 24 h,"PC12 cells [4]; PC12, 3.75 μM",0
same,Relative growth rate (%) 24 h,"PC12 cells [4]; PC12, 3.75 μM",98.50 ± 3.77%
same,Rank (cytotoxicity standard) 48 h,"PC12 cells [4]; PC12, 3.75 μM",0
same,Relative growth rate (%) 48 h,"PC12 cells [4]; PC12, 3.75 μM",100.05 ± 0.75%
same,Rank (cytotoxicity standard) 24 h,"PC12 cells [4]; PC12, 7.5 μM",0
same,Relative growth rate (%) 24 h,"PC12 cells [4]; PC12, 7.5 μM",100.42 ± 2.85%
same,Rank (cytotoxicity standard) 48 h,"PC12 cells [4]; PC12, 7.5 μM",1
same,Relative growth rate (%) 48 h,"PC12 cells [4]; PC12, 7.5 μM",92.97 ± 2.54%
same,Rank (cytotoxicity standard) 24 h,"PC12 cells [4]; PC12, 15 μM",1
same,Relative growth rate (%) 24 h,"PC12 cells [4]; PC12, 15 μM",98.55 ± 4.12%
same,Rank (cytotoxicity standard) 48 h,"PC12 cells [4]; PC12, 15 μM",1
same,Relative growth rate (%) 48 h,"PC12 cells [4]; PC12, 15 μM",88.82 ± 0.28%
same,Rank (cytotoxicity standard) 24 h,"PC12 cells [4]; PC12, 30 μM",1
same,Relative growth rate (%) 24 h,"PC12 cells [4]; PC12, 30 μM",94.56 ± 2.82%
same,Rank (cytotoxicity standard) 48 h,"PC12 cells [4]; PC12, 30 μM",1
same,Relative growth rate (%) 48 h,"PC12 cells [4]; PC12, 30 μM",93.60 ± 4.14%
same,Rank (cytotoxicity standard) 24 h,"PC12 cells [4]; PC12, 60 μM",0
same,Relative growth rate (%) 24 h,"PC12 cells [4]; PC12, 60 μM",114.78 ± 1.81%
same,Rank (cytotoxicity standard) 48 h,"PC12 cells [4]; PC12, 60 μM",0
same,Relative growth rate (%) 48 h,"PC12 cells [4]; PC12, 60 μM",109.26 ± 4.07%
same,expression of antioxidant-related proteins Nrf2 and HO-1,[5],better expression than the Flu group
same,cell proliferation rate,"PC12 cells [6]; 60 μM drug with 585.8 μM H2O2, 24 h",73.91±0.69%
same,effect on survival of H2O2-damaged PC12 cells,"PC12 cells [6]; 3.75-60 μM drug, 24 h, in words",time-dependent and concentration-dependent cell protection
same,absorbance (NO release),"BV2 cells; 1 μM (low), 12 h, 540 nm, model 0.153, blank 0.080",0.145
same,NO release versus model group,BV2 cells; 1 μM (low),no significant difference
same,NO release versus model group,BV2 cells; 5 μM (medium),significantly improved
same,NO release versus model group,BV2 cells; 10 μM (high),significantly improved
same,solubility,[7],171.77 mg/100 g
